The values that follow come from patent publication US7135467B2, “HIV integrase inhibitors” (priority 2003, dated 2006).

As usually defined, the IC50 is the concentration needed to halve the response being measured.

Structures are written as SMILES. Bounds are passed on as bounds.

The assay addresses T1, HIV-integrase (recombinant integrase) (Human immunodeficiency virus type 1 group M subtype B, UniProt P12497).
T1 construct: Recombinant integrase (0.26 ng) was incubated with the beads
Put plainly: HIV-Integrase Inhibition Activity (SPA bead strand-transfer assay). It counts as biochemical. The note with it: recombinant integrase on biotin labeled substrate DNA/SPA beads, P33 labeled target DNA; read-out: Activity (IC50 against HIV-integrase). The protocol:
To evaluate in-vitro activity against HIV-integrase, 5 pmole of biotin labeled substrate DNA was bound to 100 μg of Streptavidin coated PVT SPA beads (Amersham Pharmacia Biotech). Recombinant integrase (0.26 ng) was incubated with the beads for 90 min at 37° C. Unbound enzyme was removed by washing the complex followed by addition of inhibitors and 0.1 fmol of P33 labeled target DNA. The reaction was stopped by adding EDTA to a final concentration of 10 mM. Samples were counted in TopCountNXT (Packard) and the CPM was used as a measure of integration. The reaction condition was as described in A. Engelman and R. Craigie, J. Virol. 69, 5908–5911 (1995). The sequences of substrate and target DNA were described in Nucleic Acid Research 22, 1121–1122 (1994). Activity equal to A refers to a compound having IC50=0.003 to 0.10 μM while B and C denote compounds the following IC50=0.1 to 1.0 μM and IC50≧1.0 μM respectively.
Turning to `Cn1c(N2CCCCS2(=O)=O)nc(C(=O)NCCc2cccc(F)c2)c(O)c1=O` [Compound 21, N-[2-(3-fluorophenyl)ethyl]-1,6-dihydro-5-hydroxy-1-methyl-6-oxo-2-(tetrahydro-1,1-dioxido-2H-1,2-thiazin-2-yl)-4-pyrimidinecarboxamide], the IC50 was at least 1000 nM. Turning to `Cn1c(N2CCCCS2(=O)=O)nc(C(=O)NCc2cc(C(F)(F)F)cc(C(F)(F)F)c2)c(O)c1=O` [Compound 44, N-[[3,5-bis(trifluoromethyl)phenyl]methyl]-1,6-dihydro-5-hydroxy-1-methyl-6-oxo-2-(tetrahydro-1,1-dioxido-2H-1,2-thiazin-2-yl)-4-pyrimidinecarboxamide], the IC50 is at least 1000 nM. As for `CCCN1CCN(c2nc(C(=O)NCc3ccc(F)c(C)c3)c(O)c(=O)n2C)CC1` [Compound 74, N-[(4-fluoro-3-methylphenyl)methyl]-1,6-dihydro-5-hydroxy-1-methyl-6-oxo-2-(4-propyl-1-piperazinyl)-4-pyrimidinecarboxamide], the IC50 was 3 to 100 nM.

As for `Cn1c(N2CCC2)nc(C(=O)NCc2ccc(F)cc2)c(O)c1=O` [Compound 92, 2-(1-azetidinyl)-N-[(4-fluorophenyl)methyl]-1,6-dihydro-5-hydroxy-1-methyl-6-oxo-4-pyrimidinecarboxamide], the IC50 was 3 to 100 nM. Regarding `Cn1c(N2CCN(c3ccccn3)CC2)nc(C(=O)NCc2ccc(F)cc2)c(O)c1=O` [Compound 75, N-[(4-fluorophenyl)methyl]-1,6-dihydro-5-hydroxy-1-methyl-6-oxo-2-[4-(2-pyridinyl)-1-piperazinyl]-4-pyrimidinecarboxamide], the IC50 was in the range of 3 to 100 nM. In the case of `Cn1c(N2CCCCS2(=O)=O)nc(C(=O)NCC(c2ccccc2)c2ccccc2)c(O)c1=O` [Compound 25, N-(2,2-diphenylethyl)-1,6-dihydro-5-hydroxy-1-methyl-6-oxo-2-(tetrahydro-1,1-dioxido-2H-1,2-thiazin-2-yl)-4-pyrimidinecarboxamide], the IC50 was at least 1000 nM. For the compound `Cc1ncnn1-c1nc(C(=O)NCc2ccc(Cl)c(Cl)c2)c(O)c(=O)n1C` [Compound 62, N-[(3,4-dichlorophenyl)methyl]-1,6-dihydro-5-hydroxy-1-methyl-2-(5-methyl-1H-1,2,4-triazol-1-yl)-6-oxo-4-pyrimidinecarboxamide], the IC50 was 3 to 100 nM. Under `Cn1c(N2CCCCS2(=O)=O)nc(C(=O)NCc2ccc(Cl)cc2)c(O)c1=O` [Compound 4, N-[(4-chlorophenyl)methyl]-1,6-dihydro-5-hydroxy-1-methyl-6-oxo-2-(tetrahydro-1,1-dioxido-2H-1,2-thiazin-2-yl)-4-pyrimidinecarboxamide] stands 3 to 100 nM; under `Cn1c(N2CCCCS2(=O)=O)nc(C(=O)NCc2cc(F)cc(F)c2)c(O)c1=O` [Compound 47, N-[(3,5-difluorophenyl)methyl]-1,6-dihydro-5-hydroxy-1-methyl-6-oxo-2-(tetrahydro-1,1-dioxido-2H-1,2-thiazin-2-yl)-4-pyrimidinecarboxamide], 100 to 1000 nM; under `Cc1cc(CNC(=O)c2nc(N3CCN(c4ccccc4)CC3)n(C)c(=O)c2O)ccc1F` [Compound 80, N-[(4-fluoro-3-methylphenyl)methyl]-1,6-dihydro-5-hydroxy-1-methyl-6-oxo-2-(4-phenyl-1-piperazinyl)-4-pyrimidinecarboxamide], 3 to 100 nM. Under `Cc1ccccc1CNC(=O)c1nc(N2CCCCS2(=O)=O)n(C)c(=O)c1O` [Compound 37, 1,6-dihydro-5-hydroxy-1-methyl-N-[(2-methylphenyl)methyl]-6-oxo-2-(tetrahydro-1,1-dioxido-2H-1,2-thiazin-2-yl)-4-pyrimidinecarboxamide] stands 100 to 1000 nM; under `CNC(=O)N1CCN(c2nc(C(=O)NCc3ccc(F)cc3)c(O)c(=O)n2C)CC1` [Compound 87, N-[(4-fluorophenyl)methyl]-1,6-dihydro-5-hydroxy-1-methyl-2-[4-[(methylamino)carbonyl]-1-piperazinyl]-6-oxo-4-pyrimidinecarboxamide], 3 to 100 nM; under `Cn1c(N2CCCC2)nc(C(=O)NCc2ccc(F)cc2)c(O)c1=O` [Compound 91, N-[(4-fluorophenyl)methyl]-1,6-dihydro-5-hydroxy-1-methyl-6-oxo-2-(1-pyrrolidinyl)-4-pyrimidinecarboxamide], 3 to 100 nM. Regarding `Cn1c(N2CCCCS2(=O)=O)nc(C(=O)NCc2ccc(Cl)cc2Cl)c(O)c1=O` [Compound 43, N-[(2,4-dichlorophenyl)methyl]-1,6-dihydro-5-hydroxy-1-methyl-6-oxo-2-(tetrahydro-1,1-dioxido-2H-1,2-thiazin-2-yl)-4-pyrimidinecarboxamide], the IC50 is 100 to 1000 nM.

Turning to `Cc1ccc(CNC(=O)c2nc(N3CCCCS3(=O)=O)n(C)c(=O)c2O)cc1` [Compound 8, 1,6-dihydro-5-hydroxy-1-methyl-N-[(4-methylphenyl)methyl]-6-oxo-2-(tetrahydro-1,1-dioxido-2H-1,2-thiazin-2-yl)-4-pyrimidinecarboxamide], the IC50 was 3 to 100 nM. Turning to `Cc1cc(CNC(=O)c2nc(N3CCNCC3)n(C)c(=O)c2O)ccc1F` [Compound 70, N-[(4-fluoro-3-methylphenyl)methyl]-1,6-dihydro-5-hydroxy-1-methyl-6-oxo-2-(1-piperazinyl)-4-pyrimidinecarboxamide], the IC50 fell in the range of 3 to 100 nM. With `Cn1c(N2CCC[C@H]2C(N)=O)nc(C(=O)NCc2ccc(F)cc2)c(O)c1=O` [Compound 95, 2-[(2S)-2-(aminocarbonyl)-1-pyrrolidinyl]-N-[(4-fluorophenyl)methyl]-1,6-dihydro-5-hydroxy-1-methyl-6-oxo-4-pyrimidinecarboxamide], the IC50 was 3 to 100 nM. `Cn1c(N2CCCCC2CO)nc(C(=O)NCc2ccc(F)cc2)c(O)c1=O` (stereo not shown) [Compound 96, 4-pyrimidineN-[(4-fluorophenyl)methyl]-1,6-dihydro-5-hydroxy-2-[2-(hydroxymethyl)-1-piperidinyl]-1-methyl-6-oxo-carboxamide]: the concentration for half-maximal inhibition (IC50) lay in the range of 100 to 1000 nM. With `Cn1c(N2CCCCS2(=O)=O)nc(C(=O)NCc2cc(Cl)cc(Cl)c2)c(O)c1=O` [Compound 12, N-[(3,5-dichlorophenyl)methyl]-1,6-dihydro-5-hydroxy-1-methyl-6-oxo-2-(tetrahydro-1,1-dioxido-2H-1,2-thiazin-2-yl)-4-pyrimidinecarboxamide], the IC50 fell in the range of 3 to 100 nM. As for `COc1ccc(CCNC(=O)c2nc(N3CCCCS3(=O)=O)n(C)c(=O)c2O)cc1` [Compound 27, 1,6-dihydro-5-hydroxy-N-[2-(4-methoxyphenyl)ethyl]-1-methyl-6-oxo-2-(tetrahydro-1,1-dioxido-2H-1,2-thiazin-2-yl)-4-pyrimidinecarboxamide], the IC50 was at least 1000 nM.

As for `Cc1cc(CNC(=O)c2nc(N3CCCCC3CO)n(C)c(=O)c2O)ccc1F` (stereo not shown) [Compound 97, N-[(4-fluoro-3-methylphenyl)methyl]-1,6-dihydro-5-hydroxy-2-[2-(hydroxymethyl)-1-piperidinyl]-1-methyl-6-oxo-4-pyrimidinecarboxamide], the IC50 was 3 to 100 nM. In the case of `CC(=O)N1CCN(c2nc(C(=O)NCc3ccc(F)cc3)c(O)c(=O)n2C)CC1` [Compound 71, 2-(4-acetyl-1-piperazinyl)-N-[(4-fluorophenyl)methyl]-1,6-dihydro-5-hydroxy-1-methyl-6-oxo-4-pyrimidinecarboxamide], the IC50 is 3 to 100 nM.
